Patent US6726908B2, “Pharmaceutical formulation” (SmithKline Beecham p.l.c., priority 1995, dated 2004)
Values after ≈ are worked out from the molar mass of the structure shown. Where two headings read alike, the source gives them in different places.

Key:
Type in all cases: cell-based, Streptococcus pneumoniae
[1] = tested on: S Pneumoniae N1387; assay: MIC against resistant S Pneumoniae strain N1387
[2] = tested on: S Pneumoniae 14319; assay: MIC against resistant S Pneumoniae strain 14319
[3] = tested on: S Pneumoniae 410101; assay: MIC against resistant S Pneumoniae strain 410101
[4] = Streptococcus pneumoniae, read-out: MIC

For `CC1(C)S[C@@H]2[C@H](NC(=O)[C@H](N)c3ccc(O)cc3)C(=O)N2[C@H]1C(=O)O` [Amoxycillin], the MIC [1, 4] was 2 µg/mL (≈ 5.47 µM), the MIC [2, 4] was 4 µg/mL (≈ 10.9 µM) and the MIC [3, 4] was 4 µg/mL (≈ 10.9 µM).

In the case of `CC1(C)S[C@@H]2[C@H](NC(=O)Cc3ccccc3)C(=O)N2[C@H]1C(=O)O` [Penicillin G], the MIC [1] is reported as 2 µg/mL (≈ 5.98 µM), the MIC [2] is reported as 8 µg/mL (≈ 23.9 µM) and the MIC [3] is reported as 4 µg/mL (≈ 12 µM).
